From PMC6321301, “Phenolic Composition, Antioxidant Properties, and Inhibition toward Digestive Enzymes with Molecular Docking Analysis of Different Fractions from Prinsepia utilis Royle Fruits” (Molecules, 2018)
Like-named read-outs stand apart in the source and are kept apart here.

Columns and labels:
[1] = target: T1, porcine pancreatic lipase (Sus scrofa, UniProt P00591); experiment: Pancreatic lipase inhibition; assay type: biochemical; details: mean ± SD, n = 3
T1 construct: purchased Sigma (Sigma-Aldrich, Shanghai, China); host or cells: porcine pancreas (natural source)
T1 sequence (P00591 1-450): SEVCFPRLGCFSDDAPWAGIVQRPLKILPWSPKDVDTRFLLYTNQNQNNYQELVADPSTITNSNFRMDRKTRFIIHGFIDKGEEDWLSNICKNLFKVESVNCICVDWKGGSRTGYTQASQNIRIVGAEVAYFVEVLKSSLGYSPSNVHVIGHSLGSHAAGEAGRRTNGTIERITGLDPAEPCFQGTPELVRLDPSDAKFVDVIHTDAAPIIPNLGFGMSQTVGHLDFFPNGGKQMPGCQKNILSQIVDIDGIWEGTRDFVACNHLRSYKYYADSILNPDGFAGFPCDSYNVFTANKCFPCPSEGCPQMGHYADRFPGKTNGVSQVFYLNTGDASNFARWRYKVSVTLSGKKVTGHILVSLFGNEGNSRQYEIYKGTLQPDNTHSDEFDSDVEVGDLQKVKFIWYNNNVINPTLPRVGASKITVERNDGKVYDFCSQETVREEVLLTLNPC
Procedure: (§1) Methanol, acetonitrile, formic acid, and Folin–Ciocalteu reagent were purchased from Merck (Darmstadt, Germany). […] All of the other reagents that were used were of analytical grade.
The inhibitory effects of different fractions from P. utilis fruits, rutin, isorhamnetin-3-O-glucoside, and cyanidin-3-O-glucoside against pancreatic lipase activity were measured according to the method reported earlier. The absorbance (OD) was measured at 400 nm by using a SpectraMax M5 microplate reader. Each test was measured three times.

[2] = target: T2, α-glucosidase from Saccharomyces cerevisiae (Saccharomyces cerevisiae, UniProt P53341); experiment: α-Glucosidase inhibition; assay type: biochemical
T2 construct: purchased Sigma (Sigma-Aldrich, Shanghai, China); host or cells: Saccharomyces cerevisiae (natural source, as named)
Procedure: as §1
The α-glucosidase inhibition activities of different fractions from P. utilis fruits, rutin, and isorhamnetin-3-O-glucoside were evaluated as previously described with some modifications. The absorbance (OD) of the each reaction mixture at 405 nm was recorded by using a SpectraMax M5 microplate reader (Molecular Device, Sunnyvale, CA, USA).

[3] = cited from earlier work
[4] = cited from earlier work; remark: listed apart in the source
H2O2-induced HepG2 cells = experiment: Inhibition of intracellular ROS in H2O2-induced HepG2 cells (DCFH-DA, flow cytometry); assay type: cell-based; details: 8.0 μg/mL, positive control; p < 0.05
Procedure: HepG2 cells were supplied by Kunming cell bank, Chinese Academy of Sciences (Kunming, China), which were cultured in normal Dulbecco’s Modified Eagle Medium (DMEM) medium containing 10% fetal bovine serum (FBS), 1% antibiotic mixture of streptomycin (100 mg/mL) and penicillin (100 U/mL) at 37 °C with a humidified 5% CO2 atmosphere. […] Briefly, cells were seeded on six-well plates at 2.0 × 10^5 cells per well, and incubated for 24 h. […] Then, cells were harvested and washed twice with phosphate buffer solution (PBS). The cells of all of the groups were incubated with 10 μM of DCFH-DA for 20 min, and washed with serum-free medium to remove excess DCFH-DA by centrifuging at 156× g for five minutes. Subsequently, the intracellular ROS of each group was measured by flow cytometry with guava® easyCyte 6-2L (Millipore, Billerica, MA, USA) within 45 min. All of the experiments were measured in triplicate.

[5] = DPPH radical scavenging assay; details: mean ± SD, n = 3
Procedure: The current result was consistent with many previous studies. Huang et al. reported that the phenolic compounds in P. utilis seeds were responsible for their DPPH radical scavenging activities, regardless of different pretreatments. Zhang et al. also considered phenolics to be the main bioactive substances in Rhus chinensis Mill. fruits to scavenge DPPH radicals.
The antioxidant activities of all of the fractions from P. utilis fruits were determined by DPPH assay according to the methods described earlier. The absorbance of the reaction mixture was recorded by a SpectraMax M5 microplate reader (Molecular Device, Sunnyvale, CA, USA) at 517 nm. The DPPH radical scavenging activity (%) was calculated as [(ODcontrol − ODsample)/ODcontrol] × 100. Each test was measured in triplicate.

[6] = ABTS radical scavenging assay; details: mean ± SD, n = 3
Source text: Phenolic compounds in P. utilis fruits may be also in charge of the ABTS scavenging capacities, which were confirmed by a high Pearson’s correlation coefficient between the phenolic contents and ABTS radical scavenging ratio (r = 0.889, p < 0.01). Some discrepancies between the IC50 values of DPPH and ABTS assays of the same fraction from P. utilis fruits were observed, which may be due to the different radical structure. Many previous studies also found a similar phenomenon when the DPPH results were compared with the ABTS findings.
The antioxidant activities of all of the fractions from P. utilis fruits were measured by ABTS assay as described earlier. The absorbance of the reaction mixture was determined with a SpectraMax M5 microplate reader at 745 nm. The ABTS radical scavenging activity (%) of each sample was calculated as [(ODcontrol − ODsample)/ODcontrol] × 100. Each test was measured three times.

α-glucosidase = details: cited from earlier work

T2 sequence (P53341 whole entry): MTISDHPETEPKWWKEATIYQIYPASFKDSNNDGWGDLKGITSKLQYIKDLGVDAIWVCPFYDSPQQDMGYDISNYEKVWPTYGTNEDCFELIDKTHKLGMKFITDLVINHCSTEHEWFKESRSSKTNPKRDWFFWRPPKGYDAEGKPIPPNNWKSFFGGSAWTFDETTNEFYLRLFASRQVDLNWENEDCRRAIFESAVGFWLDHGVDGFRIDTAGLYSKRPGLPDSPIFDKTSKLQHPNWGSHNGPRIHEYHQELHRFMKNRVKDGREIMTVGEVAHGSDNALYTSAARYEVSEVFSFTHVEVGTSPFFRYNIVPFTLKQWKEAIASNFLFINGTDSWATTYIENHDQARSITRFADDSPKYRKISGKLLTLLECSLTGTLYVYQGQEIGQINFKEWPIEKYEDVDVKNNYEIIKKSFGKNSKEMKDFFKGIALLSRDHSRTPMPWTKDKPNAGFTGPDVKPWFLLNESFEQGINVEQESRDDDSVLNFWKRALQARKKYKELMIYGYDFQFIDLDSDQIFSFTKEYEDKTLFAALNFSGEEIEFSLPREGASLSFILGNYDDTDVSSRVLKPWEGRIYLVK

OC[C@H]1O[C@@H](Oc2cc3c(O)cc(O)cc3[o+]c2-c2ccc(O)c(O)c2)[C@H](O)[C@@H](O)[C@@H]1O [Cyanidin-3-O-glucoside]
pancreatic lipase inhibition IC50 [1]: 249.20 ± 3.87 µg/mL

COc1cc(-c2oc3cc(O)cc(O)c3c(=O)c2O[C@@H]2O[C@H](CO[C@@H]3O[C@@H](C)[C@H](O)[C@@H](O)[C@H]3O)[C@@H](O)[C@H](O)[C@H]2O)ccc1O [Isorhamnetin-3-O-rutinoside]
α-glucosidase inhibition IC50 ([2]; mean ± SD, n = 3): 90.19 ± 3.27 µg/mL
pancreatic lipase inhibition IC50 [1]: 237.87 ± 8.20 µg/mL

C[C@@H]1O[C@@H](OC[C@H]2O[C@@H](Oc3c(-c4ccc(O)c(O)c4)oc4cc(O)cc(O)c4c3=O)[C@H](O)[C@@H](O)[C@@H]2O)[C@H](O)[C@H](O)[C@H]1O [Rutin]
IC50 [2]: 208 µM
DPPH radical scavenging IC50 [3]: 29.63 µg/mL
IC50 [1]: 289 µM
ABTS radical scavenging IC50 [4]: 5.34 µg/mL

O=C1O[C@H]([C@@H](O)CO)C(O)=C1O [Vc, ascorbic acid]
intracellular ROS generation (H2O2-induced HepG2 cells): significantly inhibited intracellular ROS generation
DPPH radical scavenging IC50 [5]: 2.32 ± 0.11 µg/mL
ABTS radical scavenging IC50 [6]: 1.92 ± 0.21 µg/mL

O=C(O[C@@H]1Cc2c(O)cc(O)cc2O[C@H]1c1cc(O)c(O)c(O)c1)c1cc(O)c(O)c(O)c1 [gallocatechin gallate]
manner of α-glucosidase inhibition (α-glucosidase): noncompetitive
α-glucosidase inhibition IC50 (α-glucosidase): 30.02 µg/mL

O=C(CCc1ccc(O)cc1)c1c(O)cc(O)cc1O [phloretin]
α-glucosidase inhibition IC50 (α-glucosidase): 31.26 µg/mL
manner of α-glucosidase inhibition (α-glucosidase; reversible): mixed-type
